Consider 22 molecules from patent US8691865B2 (AbbVie Inc., priority 2008, dated 2014).

pIC50: −log10 of the molar value.

For the first assay, the target named is human Cav2.2 (Homo sapiens, UniProt Q00975). Kind of assay: Assessment of calcium channel activity using FLIPR (Ca2+ influx in IMR32 cells). It counts as cell-based.
Sequence of human Cav2.2 (Q00975 whole entry): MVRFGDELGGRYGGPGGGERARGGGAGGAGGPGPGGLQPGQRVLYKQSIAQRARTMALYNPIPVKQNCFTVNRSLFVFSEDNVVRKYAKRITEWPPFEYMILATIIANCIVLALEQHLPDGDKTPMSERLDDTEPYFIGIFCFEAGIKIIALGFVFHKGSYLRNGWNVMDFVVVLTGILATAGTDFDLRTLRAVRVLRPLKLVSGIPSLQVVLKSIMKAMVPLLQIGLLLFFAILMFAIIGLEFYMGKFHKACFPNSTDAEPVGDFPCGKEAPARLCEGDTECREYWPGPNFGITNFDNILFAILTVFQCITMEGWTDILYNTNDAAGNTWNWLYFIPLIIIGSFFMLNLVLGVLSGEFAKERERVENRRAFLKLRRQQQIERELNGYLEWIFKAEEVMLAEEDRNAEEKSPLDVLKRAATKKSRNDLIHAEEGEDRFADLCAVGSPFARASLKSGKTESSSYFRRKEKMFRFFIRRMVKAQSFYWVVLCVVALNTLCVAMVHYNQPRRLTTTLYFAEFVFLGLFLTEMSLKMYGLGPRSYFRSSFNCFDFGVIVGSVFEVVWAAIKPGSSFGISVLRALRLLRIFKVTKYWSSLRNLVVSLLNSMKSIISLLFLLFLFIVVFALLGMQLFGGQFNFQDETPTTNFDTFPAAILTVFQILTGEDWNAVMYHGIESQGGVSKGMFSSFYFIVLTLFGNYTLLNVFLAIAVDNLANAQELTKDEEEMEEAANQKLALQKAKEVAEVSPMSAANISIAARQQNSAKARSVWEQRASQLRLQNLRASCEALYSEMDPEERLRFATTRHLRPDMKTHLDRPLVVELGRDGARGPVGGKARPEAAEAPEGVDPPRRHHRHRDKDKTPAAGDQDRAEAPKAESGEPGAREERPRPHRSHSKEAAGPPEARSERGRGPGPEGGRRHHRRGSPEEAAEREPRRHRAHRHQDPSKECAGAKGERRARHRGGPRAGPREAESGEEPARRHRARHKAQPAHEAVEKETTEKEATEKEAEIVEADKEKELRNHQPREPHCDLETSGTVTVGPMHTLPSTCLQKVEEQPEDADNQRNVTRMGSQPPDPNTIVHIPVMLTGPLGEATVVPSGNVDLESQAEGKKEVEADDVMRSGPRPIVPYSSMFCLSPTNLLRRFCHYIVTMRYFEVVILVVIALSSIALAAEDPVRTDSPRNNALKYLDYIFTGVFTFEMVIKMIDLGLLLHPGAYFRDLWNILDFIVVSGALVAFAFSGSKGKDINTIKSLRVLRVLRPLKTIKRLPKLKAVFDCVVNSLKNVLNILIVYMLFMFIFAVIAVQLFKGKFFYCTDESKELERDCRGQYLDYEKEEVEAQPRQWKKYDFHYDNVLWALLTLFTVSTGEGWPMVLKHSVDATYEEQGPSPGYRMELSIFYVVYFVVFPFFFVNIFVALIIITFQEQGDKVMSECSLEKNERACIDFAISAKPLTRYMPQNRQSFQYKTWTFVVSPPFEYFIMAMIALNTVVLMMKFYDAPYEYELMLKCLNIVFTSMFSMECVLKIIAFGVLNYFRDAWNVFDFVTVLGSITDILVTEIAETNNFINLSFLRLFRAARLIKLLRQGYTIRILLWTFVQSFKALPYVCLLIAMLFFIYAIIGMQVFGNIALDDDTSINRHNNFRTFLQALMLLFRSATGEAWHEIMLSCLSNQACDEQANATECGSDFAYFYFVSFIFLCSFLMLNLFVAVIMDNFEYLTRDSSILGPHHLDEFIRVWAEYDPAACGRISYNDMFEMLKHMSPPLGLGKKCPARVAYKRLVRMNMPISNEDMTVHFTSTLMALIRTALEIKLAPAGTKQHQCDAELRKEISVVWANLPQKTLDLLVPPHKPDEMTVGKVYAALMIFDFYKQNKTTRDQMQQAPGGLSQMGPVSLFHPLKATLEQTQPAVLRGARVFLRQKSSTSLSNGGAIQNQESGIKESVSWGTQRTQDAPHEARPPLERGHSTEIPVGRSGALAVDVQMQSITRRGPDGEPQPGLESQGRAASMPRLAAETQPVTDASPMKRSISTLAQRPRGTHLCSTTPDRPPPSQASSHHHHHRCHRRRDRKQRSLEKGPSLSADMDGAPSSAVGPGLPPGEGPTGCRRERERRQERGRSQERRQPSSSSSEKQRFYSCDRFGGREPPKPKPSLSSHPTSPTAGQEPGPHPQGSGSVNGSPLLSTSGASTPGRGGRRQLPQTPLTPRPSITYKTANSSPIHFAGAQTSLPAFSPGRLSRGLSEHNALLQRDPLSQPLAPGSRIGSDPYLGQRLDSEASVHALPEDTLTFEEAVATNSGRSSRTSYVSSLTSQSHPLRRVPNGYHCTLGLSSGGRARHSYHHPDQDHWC
Sequence of human Cav2.2 (P54289 25-956 partner limits assumed): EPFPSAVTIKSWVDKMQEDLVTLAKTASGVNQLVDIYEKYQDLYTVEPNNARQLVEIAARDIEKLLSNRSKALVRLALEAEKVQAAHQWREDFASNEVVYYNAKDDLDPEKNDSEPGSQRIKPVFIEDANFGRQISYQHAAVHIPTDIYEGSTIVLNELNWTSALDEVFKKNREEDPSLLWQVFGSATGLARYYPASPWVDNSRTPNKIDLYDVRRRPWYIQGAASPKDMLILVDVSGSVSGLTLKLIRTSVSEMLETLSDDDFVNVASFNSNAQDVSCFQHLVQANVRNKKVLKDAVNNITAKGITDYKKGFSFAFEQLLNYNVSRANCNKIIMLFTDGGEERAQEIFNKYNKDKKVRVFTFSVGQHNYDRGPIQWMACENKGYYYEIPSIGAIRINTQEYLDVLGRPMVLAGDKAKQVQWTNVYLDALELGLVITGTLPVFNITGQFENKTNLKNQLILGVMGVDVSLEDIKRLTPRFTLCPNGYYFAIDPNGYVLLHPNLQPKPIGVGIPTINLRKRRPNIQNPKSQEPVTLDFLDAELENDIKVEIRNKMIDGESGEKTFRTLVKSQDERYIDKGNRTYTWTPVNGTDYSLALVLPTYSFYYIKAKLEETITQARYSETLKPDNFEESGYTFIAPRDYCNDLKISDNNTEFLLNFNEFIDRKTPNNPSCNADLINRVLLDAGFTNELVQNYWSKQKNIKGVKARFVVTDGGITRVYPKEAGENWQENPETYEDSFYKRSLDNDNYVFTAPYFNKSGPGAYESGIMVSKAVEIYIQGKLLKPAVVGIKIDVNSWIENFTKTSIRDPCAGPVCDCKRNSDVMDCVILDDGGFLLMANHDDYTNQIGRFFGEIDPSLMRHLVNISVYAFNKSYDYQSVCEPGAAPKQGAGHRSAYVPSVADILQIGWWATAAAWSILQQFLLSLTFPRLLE
Sequence of human Cav2.2 (P54289 957-1103 partner limits assumed): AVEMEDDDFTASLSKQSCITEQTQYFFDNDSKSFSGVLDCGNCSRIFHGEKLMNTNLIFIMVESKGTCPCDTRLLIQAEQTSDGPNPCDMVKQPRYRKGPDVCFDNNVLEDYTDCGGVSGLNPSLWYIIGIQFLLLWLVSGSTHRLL
Sequence of human Cav2.2 (P54284 whole entry partner): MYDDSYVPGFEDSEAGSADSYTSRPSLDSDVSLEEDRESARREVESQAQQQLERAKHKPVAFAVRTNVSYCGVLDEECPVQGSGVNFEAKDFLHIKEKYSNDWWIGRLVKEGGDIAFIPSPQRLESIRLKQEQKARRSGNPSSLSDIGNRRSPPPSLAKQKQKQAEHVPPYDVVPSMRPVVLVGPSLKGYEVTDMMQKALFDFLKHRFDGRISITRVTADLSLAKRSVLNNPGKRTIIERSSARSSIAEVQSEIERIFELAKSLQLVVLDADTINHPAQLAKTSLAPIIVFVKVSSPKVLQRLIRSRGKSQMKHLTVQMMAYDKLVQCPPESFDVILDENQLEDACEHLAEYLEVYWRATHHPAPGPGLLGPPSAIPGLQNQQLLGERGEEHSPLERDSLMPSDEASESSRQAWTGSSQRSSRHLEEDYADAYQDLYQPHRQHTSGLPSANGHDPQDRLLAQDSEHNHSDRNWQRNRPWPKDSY
Details: not given
The method in brief:
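Human neuroblastoma IMR32 cells were seeded at 1−1.2×10^5 cells/well and cultured 48 h at 37 °C before FLIPR calcium influx measurement. Percent inhibition at each concentration was calculated against the no-inhibitor signal, and IC50 came from sigmoidal dose-response fits.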
On to `CCC[C@H](NC)C(=O)N[C@@H]1CC[C@H]2CN(Cc3ccc(F)cc3)C[C@H]21` [Example 372, N^1-[(3aS,4R,6aR)-2-(4-fluorobenzyl)octahydrocyclopenta[c]pyrrol-4-yl]-N^2-methyl-L-norvalinamide], for which the pIC50 was below 5.05. Regarding `O=S(=O)(N[C@H]1CC[C@@H]2CN(c3cccc(C(F)(F)F)n3)C[C@@H]21)c1ccc(F)cc1` [Example 705, 4-fluoro-N-{(3aR,4S,6aS)-2-[6-(trifluoromethyl)pyridin-2-yl]octahydrocyclopenta[c]pyrrol-4-yl}benzenesulfonamide], the pIC50 is 5.42. For the molecule `O=C(N[C@H]1CC[C@@H]2CN(c3cccc(C(F)(F)F)n3)C[C@@H]21)c1cc(C2CC2)n[nH]1` [Example 583, 3-cyclopropyl-N-{(3aR,4S,6aS)-2-[6-(trifluoromethyl)pyridin-2-yl]octahydrocyclopenta[c]pyrrol-4-yl}-1H-pyrazole-5-carboxamide], the pIC50 is 5.95. With `CN[C@@H](CC(C)C)C(=O)N[C@@H]1CC[C@H]2CN(c3ccc(C(F)(F)F)cc3)C[C@H]21` [Example 740, N^2-methyl-N-{(3aS,4R,6aR)-2-[4-(trifluoromethyl)phenyl]octahydrocyclopenta[c]pyrrol-4-yl}-L-leucinamide], the pIC50 was 5.70.

For the molecule `O=C(N[C@H]1CC[C@@H]2CN(c3cc(C(F)(F)F)ccn3)C[C@@H]21)[C@@H]1C[C@@H](F)CN1` [Example 637, (4R)-4-fluoro-N-{(3aR,4S,6aS)-2-[4-(trifluoromethyl)pyridin-2-yl]octahydrocyclopenta[c]pyrrol-4-yl}-L-prolinamide], the pIC50 is 4.69. The same measure, in the same setting: the figure for `O=C(Nc1ccc(Cl)cc1)N[C@H]1CC[C@@H]2CN(c3cccc(C(F)(F)F)n3)C[C@@H]21` [Example 713, 1-(4-chlorophenyl)-3-{(3aR,4S,6aS)-2-[6-(trifluoromethyl)pyridin-2-yl]octahydrocyclopenta[c]pyrrol-4-yl}urea] is 5.52; for `Fc1ccc(-c2c[nH]c(CN[C@H]3CC[C@@H]4CN(c5cccc(C(F)(F)F)n5)C[C@@H]43)n2)cc1` [Example 744, (3aR,4S,6aS)-N-{[4-(4-fluorophenyl)-1H-imidazol-2-yl]methyl}-2-[6-(trifluoromethyl)pyridin-2-yl]octahydrocyclopenta[c]pyrrol-4-amine] it is 5.92. `CC(C)C[C@H](N[C@H]1CC[C@@H]2CN(c3cccc(C(F)(F)F)n3)C[C@@H]21)C(N)=O` [Example 706, N^2-{(3aR,4S,6aS)-2-[6-(trifluoromethyl)pyridin-2-yl]octahydrocyclopenta[c]pyrrol-4-yl}-L-leucinamide]: the pIC50 was 5.95. Still for that read-out and setting: then `Cc1cccc(N2C[C@H]3CC[C@H](NC(=O)[C@@H]4C[C@@H](F)CN4)[C@H]3C2)c1` [Example 642, (4R)-4-fluoro-N-[(3aR,4S,6aS)-2-(3-methylphenyl)octahydrocyclopenta[c]pyrrol-4-yl]-L-prolinamide], with 4.81. Same read-out and setting: then `O=C(N[C@H]1CC[C@@H]2CN(c3cccc(C(F)(F)F)n3)C[C@@H]21)c1cc2occc2[nH]1` [Example 574, N-{(3aR,4S,6aS)-2-[6-(trifluoromethyl)pyridin-2-yl]octahydrocyclopenta[c]pyrrol-4-yl}-4H-furo[3,2-b]pyrrole-5-carboxamide], with 5.86; and `O=C(N[C@H]1CC[C@H]2CN(Cc3cccc(C(F)(F)F)c3)C[C@H]21)C(C1CCCCC1)C1CCCCC1` (relative stereo) [Example 124, 2,2-dicyclohexyl-N-{(3aS*,4S*,6aR*)-2-[3-(trifluoromethyl)benzyl]octahydrocyclopenta[c]pyrrol-4-yl}acetamide], with 5.97.

The same assay, now with this note: read-out: IC50 (μM) or percent inhibition (* indicates 3 minute incubation, otherwise 60 minute); IC50; 60 minute pre-incubation with compound; IMR32 cells, 80 mM KCl depolarization.
As to `FC(F)(F)c1cccc(CN2C[C@@H]3CC[C@H](N(C4CC4)C4CC4)[C@@H]3C2)c1` (relative stereo) [Example 196, (3aS*,4S*,6aR*)-N,N-dicyclopropyl-2-[3-(trifluoromethyl)benzyl]octahydrocyclopenta[c]pyrrol-4-amine], the IC50 was 3.18 µM. As for `CC(C)(C)[C@H](C(=O)N[C@@H]1CC[C@H]2CN(Cc3ccccc3)C[C@H]21)c1ccccc1` [Example 31, (2S)-N-[(3aS,4R,6aR)-2-benzyloctahydrocyclopenta[c]pyrrol-4-yl]-3,3-dimethyl-2-phenylbutanamide], the IC50 stood at 1.65 µM. On the same count and under the same terms, the figure for `CC(C)C[C@H](C(=O)N1C[C@@H]2CC[C@@H](NC(=O)C(C3CCCCC3)C3CCCCC3)[C@@H]2C1)N(C)C` [Example 217, 2,2-dicyclohexyl-N-[(3aS,4R,6aR)-2-(N,N-dimethyl-D-leucyl)octahydrocyclopenta[c]pyrrol-4-yl]acetamide] is 1.28 µM. On the same count and under the same terms, the figure for `CC(C)C[C@H](N)C(=O)N[C@H]1CC[C@H]2CN(Cc3cccc(C(F)(F)F)c3)C[C@H]21` (stereo in doubt) [Example 158, N^1-{(3aS*,4S*,6aR*)-2-[3-(trifluoromethyl)benzyl]octahydrocyclopenta[c]pyrrol-4-yl}-L-leucinamide] is 3.51 µM. As for `CC(C)C(C(=O)N[C@H]1CC[C@@H]2CN(CCCCC(c3ccc(F)cc3)c3ccc(F)cc3)C[C@@H]21)c1ccccc1` (stereo partly drawn) [Example 119, N-{(3aR,4S,6aS)-2-[5,5-bis(4-fluorophenyl)pentyl]octahydrocyclopenta[c]pyrrol-4-yl}-3-methyl-2-phenylbutanamide], the IC50 came out at 1.12 µM. The same measure, in the same setting: then `O=C(N[C@@H]1CC[C@H]2CN(C(c3ccccc3)c3ccccc3)C[C@H]21)C(C1CCCCC1)C1CCCCC1` [Example 121, N-[(3aS,4R,6aR)-2-benzhydryloctahydrocyclopenta[c]pyrrol-4-yl]-2,2-dicyclohexylacetamide], with 14.3 µM; and `CC(C)C(C(=O)N[C@H]1CC[C@@H]2CN(Cc3cccs3)C[C@@H]21)c1ccccc1` (stereo partly drawn) [Example 102, 3-methyl-2-phenyl-N-[(3aR,4S,6aS)-2-(thien-2-ylmethyl)octahydrocyclopenta[c]pyrrol-4-yl]butanamide], with 2.77 µM. With `O=S(=O)(c1cccc(C(F)(F)F)c1)N(C1CC1)[C@H]1CC[C@H]2CN(Cc3ccccc3)C[C@H]21` (relative stereo) [Example 199, N-[(3aS*,4S*,6aR*)-2-benzyloctahydrocyclopenta[c]pyrrol-4-yl]-N-cyclopropyl-3-(trifluoromethyl)benzenesulfonamide], the IC50 was determined as 2.21 µM. Still for that read-out and setting: then `O=C(N[C@@H]1CC[C@H]2CN(CCC(c3ccc(F)cc3)c3ccc(F)cc3)C[C@H]21)C(C1CCCCC1)C1CCCCC1` [Example 80, N-{(3aS,4R,6aR)-2-[3,3-bis(4-fluorophenyl)propyl]octahydrocyclopenta[c]pyrrol-4-yl}-2,2-dicyclohexylacetamide], with 1.67 µM. Turning to `CN[C@@H](CC(C)C)C(=O)N[C@@H]1CC[C@H]2CN(S(=O)(=O)c3ccccc3)C[C@H]21` [Example 448, N^2-methyl-N^1-[(3aS,4R,6aR)-2-(phenylsulfonyl)octahydrocyclopenta[c]pyrrol-4-yl]-L-leucinamide], the IC50 was found to be 12.4 µM. Consider `Cc1cccc(C)c1CN1C[C@H]2CC[C@H](NC(=O)C(c3ccccc3)C(C)C)[C@H]2C1` (stereo partly drawn) [Example 93, N-[(3aR,4S,6aS)-2-(2,6-dimethylbenzyl)octahydrocyclopenta[c]pyrrol-4-yl]-3-methyl-2-phenylbutanamide], for which the IC50 worked out at 3.26 µM.

The term pIC50 denotes the negative decadic logarithm of the IC50, by convention in mol/L. By IC50 is commonly meant the midpoint of a concentration-inhibition curve.
